This passage reports Activity, Drug uptake and AUMClast results from ChEMBL document CHEMBL6096669, “Design and synthesis of novel derivatives of bisepoxylignans as potent anti-inflammatory agents involves the modulation of the M1/M2 microglia phenotype via TLR4/NF-κB signaling pathway” (Eur J Med Chem, 2025).

Active and inactive are the calls of the source. The calls are words filed in the database; no cut-off is given here.

Data set [1] concerns BV-2. Briefly: Anti-inflammatory activity against LPS-induced mouse BV-2 cells assessed as decrease in LPS-induced iNOS mRNA expression at 5 uM incubated for 4 hrs followed by LPS induced for 12 hrs by RT-PCR analysis relative to control. To be noted: time 16.0 hrs. The format is functional, cell-based.
Data set [2] deals with BV-2. Briefly: Anti-inflammatory activity against LPS-induced mouse BV-2 cells assessed as decrease in LPS-induced iNOS production incubated for 4 hrs followed by LPS induced for 24 hrs by Western blotting analysis. The following applies: dose 5-20 µM, time 28.0 hrs. The format is functional, cell-based.
Data set [3] is described as follows: Acute toxicity in C57BL/6 mouse assessed as morphological changes in liver by measuring signs of inflammation at 500 mg/kg, po single dose measured on day 8 by H and E staining based assay. The format is organism-based. The following applies: in vivo, 192 h, time 8 day.
The test system of data set [4] is Mus musculus. Briefly: Anti-neuroinflammatory activity against LPS-induced male C57BL/6 mouse assessed as suppression of LPS-induced microglial activation by measuring decrease in […] fluorescence intensity at 20 mg/kg, po administered for 3 days followed by induced with LPS by tail vein injection by immunofluorescence staining based assay. To be noted: time 3.0 day. The format is functional, organism-based.

The test system of data set [5] is Mus musculus. As to the kind of experiment: Anti-neuroinflammatory activity against LPS-induced male C57BL/6 mouse assessed as suppression of LPS-induced TNF-alphamRNA level at 20 mg/kg, po administered for 3 days followed by induced with LPS by tail vein injection by RT-PCR analysis. The format is functional, organism-based. To be noted: time 3.0 day.
Data set [6] is described as follows: Acute toxicity in C57BL/6 mouse assessed as change in ALT level at 500 mg/kg, po single dose measured on day 8 by ALT/GPT test kit. The format is organism-based. The following applies: in vivo.
Data set [7] has as its system BV-2. Briefly: Anti-inflammatory activity against LPS-induced mouse BV-2 cells assessed as decrease in LPS-induced TNFalpha production at 5 to 10 uM incubated for 4 hrs followed by LPS induced for 24 hrs by Western blotting analysis. The format is functional, cell-based. The following applies: dose 5-10 µM. (In general: In western blotting, separated proteins are transferred to a membrane and probed.)

Data set [8] is described as follows: Biodistribution in C57BL/6 mouse spleen at 20 mg/kg, IG measured after 15 mins. The format is ADME, organism-based. The following applies: in vivo, po, 0.25 h.
Data set [9] deals with Mus musculus. Briefly: Anti-neuroinflammatory activity against LPS-induced male C57BL/6 mouse assessed as suppression of LPS-induced pathological changes in liver at 20 mg/kg, po administered for 3 days followed by induced with LPS by tail vein injection by hematoxylin-eosin staining based assay. To be noted: time 3.0 day. The format is functional, organism-based.
For data set [10], the system named is BV-2. Briefly: Anti-inflammatory activity against LPS-induced mouse BV-2 cells assessed as decrease in LPS-induced IL-6 mRNA expression at 10 to 20 uM incubated for 4 hrs followed by LPS induced for 12 hrs by RT-PCR analysis relative to control. The format is functional, cell-based. The following applies: dose 10-20 µM, time 16.0 hrs.
Data set [11] has as its system Mus musculus. As to the kind of experiment: Anti-neuroinflammatory activity against LPS-induced male C57BL/6 mouse assessed as suppression of LPS-induced pathological changes in kidney at 20 mg/kg, po administered for 3 days followed by induced with LPS by tail vein injection by hematoxylin-eosin staining based assay. The format is functional, organism-based. The following applies: time 3.0 day.

Data set [12] has as its system Mus musculus. As to the kind of experiment: Anti-neuroinflammatory activity against LPS-induced male C57BL/6 mouse assessed as suppression of LPS-induced IL-6 mRNA level at 20 mg/kg, po administered for 3 days followed by induced with LPS by tail vein injection by RT-PCR analysis. The format is functional, organism-based. The following applies: time 3.0 day.
Data set [13] can be described thus: Acute toxicity in C57BL/6 mouse assessed as morphological changes in kidney by measuring signs of inflammation at 500 mg/kg, po single dose measured on day 8 by H and E staining based assay. The format is organism-based. To be noted: in vivo, 192 h, time 8 day.
The subject of data set [14] is BV-2. Briefly: Anti-inflammatory activity against LPS-induced mouse BV-2 cells assessed as decrease in LPS-induced TLR4 production incubated for 4 hrs followed by LPS induced for 24 hrs by […]. The format is functional, cell-based. The following applies: dose 5-20 µM, time 28.0 hrs.
Data set [15] deals with Mus musculus. Briefly: Anti-neuroinflammatory activity against LPS-induced male C57BL/6 mouse assessed as suppression of LPS-induced p-NF-kappaB protein level at 20 mg/kg, po administered for 3 days followed by induced with LPS by tail vein injection by Western blot analysis. The format is functional, organism-based. To be noted: time 3.0 day.
A short description of data set [16]: AUMClast in rat at 20 mg/kg, po single dose. The format is ADME, organism-based. The following applies: in vivo.

Take `O=c1[nH]c2ccc(Nc3ncnc4c3ccn4Cc3ccc(F)cc3)cc2[nH]1`: the Activity entry was “Not active; No Significant Effect Observed Vs Lps” in the data set with BV-2 [1]; “Dose-dependent-effect” in the data set with BV-2 [2]; “Non-toxic” in data set [3]; “Non-toxic” in data set [6]; “Not active; No Significant Effect Observed Vs Lps” with BV-2 [7]; “Active; Decreased Lps-Induced Visceral Injury (Cell Morphology, Hemorrhage, And Neutrophil Infiltration) And Maintaining Normal Cell Shape And Arrangement And Enhancing Infiltration Of Inflammatory Cells” in the data set on Mus musculus [9]. Moreover, the Activity result in the data set with Mus musculus [11] is “Active; Decreased Lps-Induced Visceral Injury (Cell Morphology, Hemorrhage, And Neutrophil Infiltration) And Maintaining Normal Cell Shape And Arrangement And Enhancing Infiltration Of Inflammatory Cells”; in data set [13] it was “Non-toxic”; in the data set with BV-2 [14], “Dose-dependent-effect”. Further, the outcome with Mus musculus [4], in the data set with Mus musculus [5], in the data set with BV-2 [10], in the data set on Mus musculus [12] and in the data set on Mus musculus [15] was Active. Further, the Drug uptake result in data set [8] is recorded as “Active”. In data set [16], the AUMClast was determined as 269972.2 hr.hr.ng/ml.
